# Measurements published in the NIST ThermoML archive (doi:10.1021/je500682v).
# ± gives the expanded uncertainty stated by the source.
# Key:
# [1] = Crystal; DTA
# [2] = Molar enthalpy of transition or fusion; conditions: Crystal; DSC
Compound,Normal melting temperature [1] [°C],Molar enthalpy of transition or fusion [2] [kcal/mol]
"O=C(O)CCCC(=O)O [1,5-pentanedioic acid]",99.10 ± 0.99,5.07 ± 0.287
O=C(O)CCC(=O)O [butanedioic acid],185.50 ± 0.99,7.82 ± 0.43
"O=C(O)CCCCC(=O)O [1,6-hexanedioic acid]",152.00 ± 0.99,8.4 ± 0.454
